Measurements taken from patent US20220389058A1, “PEPTIDES AND COMPOSITIONS FOR USE IN COSMETICS AND MEDICINE” (LIPOTRUE, S.L., priority 2019, published 2022).

What was measured:
[1] = test system: HDFa cells; experiment: Genes related with response to sleep deprivation, RT-qPCR in HDFa (Example 16); type: cell-based, Human; conditions: 0.01 mg/ml, 24 hours
Experimental: (§1) A stock solution of the peptide was prepared in water at 1 mg/mL. Working solution was freshly prepared at the specified concentration from stock solution in the corresponding supplemented medium.
RNA (ribonucleic acid) extraction and RT-qPCR (reverse transcription quantitative polymerase chain reaction) were performed. […]
Cells were finally lysed, and replicates were pooled together for RNA extraction using Qiagen RNeasy Mini kit following manufacturer's instructions. […] (Annealing and extension) (Arya, M., Shergill, I. S., Williamson, M., Gommersall, L., Arya, N., Patel, H. R. (2005) Basic principles of real-time quantitative PCR. Expert Rev. Mol. Diagn.; 5(2):209-19; and Jozefczuk, J. and Adjaye, J. (2011) Quantitative real-time PCR-based analysis of gene expression. Methods Enzymol. 500; 99-109).
(§2) The obtained data was analysed using the ΔΔCt method, which provides the target gene expression values as fold changes in the treated sample compared with an untreated basal sample. […]

[2] = test system: IL33; experiment: IL33 expression modulation by RT-qPCR in HEKa cells (Example 7); type: cell-based, Human; conditions: 0.01 mg/mL, 24 hours
Experimental: as §1
RNA (ribonucleic acid) extraction and RT-qPCR (reverse transcription quantitative polymerase chain reaction) were performed. Briefly, HDFa and HEKa cells were seeded in duplicate (n=2) in 6-well plates at a density of 4×10^5 cells/well and maintained at standard culture conditions (106 Medium supplemented with 1% (v/v) LSGS for HDFa cells; Medium Epilife supplemented with 1% (v/v) EDGS and 1% (v/v) penicillin/streptomycin for HEKa cells; 37° C., 95% room humidity, 5% CO2) for 24 hours. Then, cells were treated with peptide Ac-SEQ ID NO: 1-NH2, Ac-SEQ ID NO: 2-NH2 or Ac-SEQ ID NO: 3-NH2 at the concentration of 0.01 mg/mL for 24 hours. Untreated cells were used as basal or negative control.
Cells were finally lysed, and replicates were pooled together for RNA extraction using Qiagen RNeasy Mini kit following manufacturer's instructions. Purified RNAs were used to generate the corresponding cDNAs (complementary deoxyribonucleic acids) by reverse transcription using a commercial kit High capacity cDNA reverse transcription kit (Applied Biosystems) which served as templates for amplification. RT-qPCR was performed with the appropriate TaqMan assay probes for IL33 (plus GAPDH—Glyceraldehyde 3-phosphate dehydrogenase—that was used as housekeeping gene) and 2×gene expression Master Mix using StepOne plus Real-Time PCR instrument. […] (Annealing and extension) (Arya, M., Shergill, I. S., Williamson, M., Gommersall, L., Arya, N., Patel, H. R. (2005) Basic principles of real-time quantitative PCR. Expert Rev. Mol. Diagn.; 5(2):209-19; and Jozefczuk, J. and Adjaye, J. (2011) Quantitative real-time PCR-based analysis of gene expression. Methods Enzymol. 500; 99-109).
as §2

[3] = test system: human skin explants; experiment: Ex vivo methylglyoxal-induced glycation, CML immunostaining (Example 14); conditions: cream containing 1% (w/v) Ac-SEQ ID NO: 1-NH2, topical 2 mg/cm^2; methylglyoxal 500 μM; after 9 days of culture
Experimental: Briefly, human skin explants from a person were kept in survival in BEM culture medium at 37° C. in a humid, 5% CO2 atmosphere. […] Explants were collected at each timepoint and cut in two parts. Half was fixed in buffered formalin solution and half was frozen at −80° C.
After fixation for 24 hours in buffered formalin, the samples were dehydrated and impregnated in paraffin. 5-μm-thick sections were made using a Leica RM 2125 Minot-type microtome, and the sections were mounted on Superfrost® histological glass slides.

[4] = test system: IL-33; experiment: Production of protein IL-33 in HDFa cells stimulated with IFNγ, ELISA (Example 8); type: cell-based, human; conditions: HDFa cells exposed to IFNγ (300 U/mL), 0.005, 0.01 and 0.05 mg/mL, 24 hours, cell lysates
Experimental: Adult human dermal fibroblasts (HDFa) were seeded on 24-well plate at concentration of 1×10^5 cells/mL in their corresponding growth media and incubated for 24 hours in standard culture conditions; at that time, three different concentrations (0.005, 0.01 and 0.05 mg/mL) of the Ac-SEQ ID NO: 1-NH2 were added in presence of IL-33-induction stimulus (IFNγ, 300 U/mL). Cells without stimuli were also included as basal group. Positive control group was cells treated with 300 U/mL of IFNγ, but without being treated with a peptide of the present invention. 24 hours later, conditioned media was collected, and cells processed for protein extraction.
IL-33 levels in the cell lysates were analysed with a commercial ELISA kit (DuoSet ELISA. R&D). Absorbances were measured with an automated spectrophotometer plate-reader.

[5] = Lipid peroxidation, TBARS assay (Example 13); type: biochemical; conditions: 0.01, 0.05, 0.1 and 0.5 mg/mL; 2 hours at 37° C.; vs negative control
Experimental: Briefly, Trolox (positive control), 0.01, 0.05, 0.1 and 0.5 mg/mL of peptide Ac-SEQ ID NO: 1-NH2 in presence of small unilamellar vesicles of egg yolk phosphatidylcholine (EYPC), a substrate for lipid peroxidation were incubated for 2 hours at 37° C. in the presence of thiobarbituric acid (TBA). A fluorimetric method was used to evaluate the % of lipid peroxidation compared to the negative control (sample only with small unilamellar vesicles of egg yolk phosphatidylcholine).

Ac-Arg-Arg-Gln-Met-Arg-Glu-NH2 (Ac-RRQMRE-NH2) [Ac-SEQ ID NO: 1-NH2]
IL1RL1 Fold change between treated cells and basal control [1]: −1.26 Fold change | IL33 gene expression, fold change in treated cells with regard to basal control [2]: −4.58 fold change | decrease in CML signal when compared with MG-exposed untreated explants [3]: −73% | IL-33 protein levels [4]: reduces the IL-33 protein levels produced by HDFa cells exposed to IFNγ (300 U/mL) in a dose-dependent manner | lipid peroxidation (TBARS) [5]: able to protect from lipid peroxidation
